In brackets after ≈: the same amount, converted by molar mass. Read-outs that look alike come from different tables or passages of the source.
What was measured:
[1] = tested on: Pseudomonas species; details: in words; prior art; cited from earlier work
[2] = tested on: E. cloacae A-9656; experiment: microbe, parasite or virus in culture; details: Enterobacter cloacae, A9656
[3] = tested on: H. influenzae A21518; experiment: In vitro MIC, tube dilution in Nutrient Broth, overnight at 37° C.; assay type: cell-based; details: Haemophilus influenzae
[4] = tested on: E. coli A15119; experiment: as above; assay type: cell-based; details: Escherichia coli
[5] = tested on: E. cloacae A-9659; experiment: microbe, parasite or virus in culture; details: Enterobacter cloacae, A9659
[6] = tested on: P. aeruginosa A-9843a; experiment: Protective effect in the intramuscular treatment of infected mice; assay type: in vivo; details: Pseudomonas aeruginosa, A9843A, im, challenge 3 × 10^4 organisms, treated 0 and 2 h postinfection; read-out: PD50/Treatment
Protocol: (§1) 3.5 hours (all others); 5 mice were used in each test.

[7] = tested on: S. aureus A-9606; experiment: as above; assay type: in vivo; details: Staphylococcus aureus, A9606, im; i.m., challenge 1 × 10^9 organisms, treated 1 and 3.5 h postinfection; read-out: PD50/Treatment
Protocol: as §1

[8] = tested on: S. marcescens A20335; experiment: as above; assay type: in vivo; details: Serratia marcescens, A20335, im; i.m., challenge 9 × 10^6 organisms, treated 1 and 3.5 h postinfection; read-out: PD50/Treatment
Protocol: as §1

[9] = tested on: P. aeruginosa A20599; experiment: as above; assay type: in vivo; details: Pseudomonas aeruginosa, A20599, im; i.m., challenge 9 × 10^4 organisms, treated 0 and 2 h postinfection; read-out: PD50/Treatment
Protocol: as §1

[10] = tested on: E. cloacae A-9659; experiment: as above; assay type: in vivo; details: Enterobacter cloacae, A9659, im; i.m., challenge 4 × 10^6 organisms, treated 1 and 3.5 h postinfection; read-out: PD50/Treatment
Protocol: as §1

[11] = tested on: P. aeruginosa A20481; experiment: as above; assay type: in vivo; details: Pseudomonas aeruginosa, A20481, im; i.m., challenge 3 × 10^4 organisms, treated 0 and 2 h postinfection; read-out: PD50/Treatment
Protocol: as §1

[12] = tested on: P. rettgeri A15167-2; experiment: as above; assay type: in vivo; details: Providencia rettgeri, A151672, im, read-out: PD50/Treatment
Protocol: as §1

[13] = tested on: E. coli A15119; experiment: as above; assay type: in vivo; details: Escherichia coli, A15119, im; i.m., challenge 6 × 10^6 organisms, treated 1 and 3.5 h postinfection; read-out: PD50/Treatment
Protocol: as §1

[14] = tested on: M. morganii A15149; experiment: as above; assay type: in vivo; details: Morganella morganii, A15149, im; i.m., challenge 7 × 10^5 organisms, treated 1 and 3.5 h postinfection; read-out: PD50/Treatment
Protocol: as §1

[15] = tested on: P. vulgaris A21559; experiment: as above; assay type: in vivo; details: Proteus vulgaris, A21559, im; i.m., challenge 4 × 10^5 organisms, treated 0 and 2 h postinfection; read-out: PD50/Treatment
Protocol: as §1

[16] = tested on: K. pneumoniae A-9664; experiment: as above; assay type: in vivo; details: Klebsiella pneumoniae, A9664, im; i.m., challenge 7 × 10^6 organisms, treated 1 and 3.5 h postinfection; read-out: PD50/Treatment
Protocol: as §1

[17] = Blood levels in mice after intramuscular administration; assay type: in vivo; details: mouse, im, 20 mg/kg i.m.
From the text: *t1/2refers to halflife in minutes
**AUC refers to the area under the curve

[18] = tested on: B. fragilis A22862; experiment: In vitro MIC, tube dilution in Nutrient Broth, overnight at 37° C.; assay type: cell-based; details: Bacteroides fragilis
[19] = tested on: S. pneumoniae A-9585; experiment: as above; assay type: cell-based; details: Streptococcus pneumoniae, A9585
[20] = tested on: S. faecalis A20688; experiment: as above; assay type: cell-based; details: Enterococcus faecalis
[21] = Urinary recovery after intramuscular administration to mice; assay type: in vivo; details: mouse, urine, im, 20 mg/kg, 20 mg/kg i.m., read-out: Urinary recovery, Percentage of Dose Recovered
From the text: | a single test; 4 mice per compound.

[22] = tested on: K. pneumoniae A20468; experiment: microbe, parasite or virus in culture; details: Klebsiella pneumoniae
[23] = tested on: H. influenzae A-9833; experiment: In vitro MIC, tube dilution in Nutrient Broth, overnight at 37° C.; assay type: cell-based; details: Haemophilus influenzae, A9833
[24] = tested on: P. morganii A15153; experiment: microbe, parasite or virus in culture; details: Morganella morganii
[25] = tested on: B. fragilis A22053; experiment: microbe, parasite or virus in culture; details: Bacteroides fragilis
[26] = tested on: S. aureus A-9606 (Pen-res.); experiment: In vitro MIC, tube dilution in Nutrient Broth, overnight at 37° C.; assay type: cell-based; details: Staphylococcus aureus
[27] = tested on: S. aureus A-9537; experiment: as above; assay type: cell-based; details: Staphylococcus aureus
[28] = tested on: H. influenzae A21522; experiment: as above; assay type: cell-based; details: Haemophilus influenzae
[29] = in vivo; details: mouse
[30] = tested on: E. coli A20341-1; experiment: In vitro MIC, tube dilution in Nutrient Broth, overnight at 37° C.; assay type: cell-based
[31] = Toxicity after intracranial administration to mice; details: mouse, in vivo
[32] = tested on: P. mirabilis A-9900; experiment: Protective effect in the intramuscular treatment of infected mice; assay type: in vivo; details: Proteus mirabilis, A9900, im, read-out: PD50/Treatment
Protocol: The PD50 (dose in mg/kg required to give protection to 50% of the infected mice) is indicated.
Treatment Schedule: Mice were treated i.m. with drugs 0 and 2 hours

[33] = tested on: P. mirabilis A-9900; experiment: microbe, parasite or virus in culture; details: Proteus mirabilis, A9900
[34] = tested on: S. aureus A15097 (Meth-res.); experiment: microbe, parasite or virus in culture; assay type: cell-based; details: Staphylococcus aureus
[35] = tested on: S. marcescens A20019; experiment: microbe, parasite or virus in culture; details: Serratia marcescens
[36] = tested on: P. vulgaris A21559; experiment: In vitro MIC, tube dilution in Nutrient Broth, overnight at 37° C.; assay type: cell-based; details: Proteus vulgaris
[37] = tested on: B. fragilis A22863; experiment: microbe, parasite or virus in culture; details: Bacteroides fragilis
[38] = tested on: P. aeruginosa A-9843A; experiment: In vitro MIC, tube dilution in Nutrient Broth, overnight at 37° C.; assay type: cell-based; details: Pseudomonas aeruginosa, A9843A
[39] = tested on: S. pyogenes A-9604; experiment: as above; assay type: cell-based; details: Streptococcus pyogenes, A9604
[40] = tested on: K. pneumoniae A-9664; experiment: microbe, parasite or virus in culture; details: Klebsiella pneumoniae, A9664
[41] = tested on: H. influenzae A20178; experiment: In vitro MIC, tube dilution in Nutrient Broth, overnight at 37° C.; assay type: cell-based; details: Haemophilus influenzae

Question: For `C[C@@H](O)[C@H]1C(=O)N2C(C(=O)O)=C(SCCN)C[C@H]12` [thienamycin], which “activity against various Pseudomonas species” value [1] is on record?
Answer: The value was “notable activity”.

Question: Which results are given for `C[C@@H](O)[C@H]1C(=O)N2C(C(=O)[O-])=C(SCC[S+]3CCCC3)C[C@H]12` [Example 1, 3-[2-(1-tetrahydrothiophenium)ethylthio]-6α-[1-(R)-hydroxyethyl]-7-oxo-1-azabicyclo[3.2.0]hept-2-ene-2-carboxylate]?
Answer: MIC [2]: 0.13 mg/L (≈ 0.378 µM); MIC [3]: 8 mg/L (≈ 23.3 µM); MIC ([4]; A15119, E. coli A15119 (10^-2)): 0.06 mg/L (≈ 0.175 µM); MIC ([4]; A15119, E. coli A15119 (10^-3)): 0.06 mg/L (≈ 0.175 µM); MIC ([4]; E. coli A15119 (10^-4 dil.), read-out: MIC): 0.03 mg/L (≈ 0.0873 µM); MIC [5]: 0.13 mg/L (≈ 0.378 µM); ED50 [6]: 0.6 mg/kg; ED50 [7]: 0.19 mg/kg; ED50 [8]: 5 mg/kg; ED50 [9]: 1.3 mg/kg; ED50 [10]: 1.3 mg/kg; ED50 [11]: 0.8 mg/kg; ED50 [12]: 8.7 mg/kg; ED50 [13]: 1.6 mg/kg; ED50 [14]: 3.3 mg/kg; ED50 [15]: 3.3 mg/kg; ED50 [16]: 5 mg/kg; AUC [17]: 7.4 µg·h/mL; half-life [17]: 9 min; MIC [18]: 0.06 mg/L (≈ 0.175 µM); MIC [19]: 0.002 mg/L (≈ 0.00582 µM); MIC [20]: 0.5 mg/L (≈ 1.46 µM); dose excreted at 3 h ([21]; 0-3 hours): 15.6%; dose excreted at 24 h ([21]; 0-24 hours): 17.7 ± 2.9%; dose excreted at 6 h ([21]; 3-6 hours): 2.1%; dose excreted at 24 h ([21]; 6-24 hours): < 0.2%; MIC [22]: 0.13 mg/L (≈ 0.378 µM); MIC [23]: 8 mg/L (≈ 23.3 µM); MIC [24]: 0.06 mg/L (≈ 0.175 µM); MIC [25]: 0.06 mg/L (≈ 0.175 µM); MIC [26]: 0.016 mg/L (≈ 0.0466 µM); MIC ([27]; A9537, S. aureus A-9537): 0.008 mg/L (≈ 0.0233 µM); MIC ([27]; A9537, S. aureus A-9537 +50% serum): 0.03 mg/L (≈ 0.0873 µM); MIC [28]: 8 mg/L (≈ 23.3 µM); NOAEL [29]: ~5 mg/kg; MIC ([30]; E. coli A20341-1 (10^-3)): 0.03 mg/L (≈ 0.0873 µM); MIC ([30]; Escherichia coli, A203411, E. coli A20341-1 (10^-2)): 0.06 mg/L (≈ 0.175 µM); MIC ([30]; Escherichia coli, A203411, E. coli A20341-1 (10^-4), read-out: MIC): 0.03 mg/L (≈ 0.0873 µM); LD50 [31]: > 40 mg/kg; ED50 [32]: 7.7 mg/kg; MIC [33]: 0.13 mg/L (≈ 0.378 µM); MIC [34]: 2 mg/L (≈ 5.82 µM); MIC [35]: 0.06 mg/L (≈ 0.175 µM); MIC [36]: 0.03 mg/L (≈ 0.0873 µM); MIC [37]: 0.06 mg/L (≈ 0.175 µM); MIC [38]: 1 mg/L (≈ 2.91 µM); MIC [39]: 0.004 mg/L (≈ 0.0116 µM); MIC [40]: 0.06 mg/L (≈ 0.175 µM); MIC [41]: 8 mg/L (≈ 23.3 µM)

From patent US4683301A, “Carbapenem antibiotics” (Bristol-Myers Company, priority 1984, dated 1987)
